In patent US9062028B2, “Bicyclic nitrogen containing heteroaryl TGR5 receptor modulators” (Bristol-Myers Squibb Company, priority 2011, dated 2015):
Structures can show the parent of a compound that is named as a salt.

Target: T1, recombinant human TGR5 (Homo sapiens, UniProt Q8TDU6)
T1 construct: expressed in transfected cells
T1 sequence (Q8TDU6 1-330): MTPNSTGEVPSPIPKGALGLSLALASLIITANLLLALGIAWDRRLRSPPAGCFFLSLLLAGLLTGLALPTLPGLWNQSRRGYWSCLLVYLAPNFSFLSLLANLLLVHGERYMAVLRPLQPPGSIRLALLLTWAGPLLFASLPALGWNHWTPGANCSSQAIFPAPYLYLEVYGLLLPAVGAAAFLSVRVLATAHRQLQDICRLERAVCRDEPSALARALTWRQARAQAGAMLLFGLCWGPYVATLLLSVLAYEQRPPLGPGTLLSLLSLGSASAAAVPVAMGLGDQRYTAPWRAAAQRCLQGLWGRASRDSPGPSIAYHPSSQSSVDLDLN
Test: cAMP assay (cAMP accumulation, HTRF) in CHOK1 cells stably expressing TGR5
Format: cell-based
Details: CHOK1 cells stably expressing human TGR5, 30 minutes at RT, 1% DMSO
Method in brief: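 Agonist-induced cAMP accumulation: stable TGR5-CHOK1 cells treated 30 min at RT with compound (1% DMSO) plus 0.1 mM IBMX. HTRF ratio converted to nM cAMP via standard curve; EC50 from four-parameter logistic fit, midpoint between baseline and maximum.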

SMILES | EC50 [nM]
Cc1c(Cl)cccc1OCCOC(=O)N1C[C@@H]2C[C@@H]2c2c(-c3cnn(Cc4cccc(NC(=O)NCS(=O)(=O)O)c4)c3)cccc21 [Example 527, (3-(3-((4-((1aR,7bS)-3-((2-(3-Chloro-2-methyl-phenoxy)ethoxy)carbonyl)-1a,2,3,7b-tetrahydro-1H-cyclopropa[c]quinolin-7-yl)-1H-pyrazol-1-yl)methyl)phenyl)ureido) methanesulfonic acid] | 184
Cc1c(Cl)cccc1OCCCC(=O)N1CCCc2c(-c3cnn(Cc4cccc(NC(=O)N[C@H](CCC(=O)O)C(=O)O)c4)c3)cccc21 [Example 534, (R)-2-(3-(3-((4-(1-(4-(3-Chloro-2-methylphenoxy)butanoyl)-1,2,3,4-tetra-hydroquinolin-5-yl)-1H-pyrazol-1-yl)methyl)phenyl)ureido) pentanedioic acid] | 192
Cc1cccc(OCCCC(=O)N(C)c2cccc(-c3cnn(Cc4cccc(C(=O)NCCC(=O)O)c4)c3)c2)c1C [Example 552, 3-(3-((4-(3-(4-(2,3-Dimethylphenoxy)-N-methylbutanamido)phenyl)-1H-pyrazol-1-yl)methyl)benzamido)propanoic acid] | 2380
Cc1c(Cl)cccc1OCCCC(=O)N1CCSc2c(-c3cnn(Cc4cccc(C(=O)NCCS(=O)(=O)O)c4)c3)cccc21 [Example 564, 2-(3-((4-(4-(4-(3-Chloro-2-methylphenoxy)butanoyl)-3,4-dihydro-2H-benzo[b][1,4]thiazin-8-yl)-1H-pyrazol-1-yl)methyl)benzamido) ethanesulfonic acid] | 49
Cc1cccc(OCCCC(=O)N2CCSc3c(-c4cnn(Cc5c(F)cc(C(=O)NCCC(=O)O)cc5Cl)c4)cccc32)c1C [Example 575, 3-(3-Chloro-4-((4-(4-(4-(2,3-dimethylphenoxy)butanoyl)-3,4-dihydro-2H-benzo[b][1,4]thiazin-8-yl)-1H-pyrazol-1-yl)methyl)-5-fluorobenzamido) propanoic acid] | 49
Cc1cccc(OCCCC(=O)N2CCSc3c(-c4cnn(Cc5c(F)cc(C(=O)NCC(=O)O)cc5Cl)c4)cccc32)c1C [Example 576, 2-(3-Chloro-4-((4-(4-(4-(2,3-dimethylphenoxy)butanoyl)-3,4-dihydro-2H-benzo[b][1,4]thiazin-8-yl)-1H-pyrazol-1-yl)methyl)-5-fluorobenzamido) acetic acid] | 48
Cc1cccc(OCCOC(=O)N2CCSc3c(-c4cnn(Cc5cccc(C(=O)NCCS(=O)(=O)O)c5)c4)cccc32)c1C [Example 597, 2-(3-((4-(4-((2-(2,3-Dimethylphenoxy)ethoxy)carbonyl)-3,4-dihydro-2H-benzo[b][1,4]thiazin-8-yl)-1H-pyrazol-1-yl)methyl)benzamido)ethanesulfonic acid] | 173
Cc1c(Cl)cccc1OCCCC(=O)N1CCSc2c(-c3cnn(Cc4cccc(C(=O)N[C@@H](CC[N+](C)(C)C)C(=O)O)c4)c3)cccc21 [Example 617, (S)-3-Carboxy-3-(3-((4-(4-(4-(3-chloro-2-methylphenoxy)butanoyl)-3,4-dihydro-2H-benzo[b][1,4]thiazin-8-yl)-1H-pyrazol-1-yl)methyl)benzamido)-N,N,N-trimethylpropan-1-aminium, TFA salt] | 175
Cc1cccc(OCCCC(=O)N2CCOc3c(-c4cnn(Cc5cccc(C(=O)N[C@@H](CC(=O)O)C(=O)O)c5Cl)c4)cccc32)c1C [Example 624, (S)-2-(2-Chloro-3-((4-(4-(4-(2,3-dimethylphenoxy)butanoyl)-3,4-dihydro-2H-benzo[b][1,4]oxazin-8-yl)-1H-pyrazol-1-yl)methyl)benzamido)succinic acid] | 1380
Cc1c(Cl)cccc1OCCOC(=O)N1CCSc2c(-c3cnn(Cc4cccc(C(=O)NCCS(=O)(=O)O)c4Cl)c3)cccc21 [Example 626, 2-(2-Chloro-3-((4-(4-((2-(3-chloro-2-methylphenoxy)ethoxy)carbonyl)-3,4-dihydro-2H-benzo[b][1,4]thiazin-8-yl)-1H-pyrazol-1-yl)metehyl)benzamido)ethanesulfonic acid] | 188
Cc1c(Cl)cccc1OCCOC(=O)N1CCSc2c(-c3cnn(Cc4cccc(C(=O)NCCC(=O)O)c4Cl)c3)cccc21 [Example 628, 3-(2-Chloro-3-((4-(4-((2-(3-chloro-2-methylphenoxy)ethoxy)carbonyl)-3,4-dihydro-2H-benzo[b][1,4]thiazin-8-yl)-1H-pyrazol-1-yl)methyl)benzamido)propanoic acid] | 195
Cc1c(Cl)cccc1OCCCC(=O)N1CCSc2c(-c3cnn(Cc4cccc(C(=O)NCCC[C@H](N)C(=O)OC(C)C)c4)c3)cccc21 [Example 635, (S)-Isopropyl 2-amino-5-(3-((4-(4-(4-(3-chloro-2-methylphenoxy)butanoyl)-3,4-dihydro-2H-benzo[b][1,4]thiazin-8-yl)-1H-pyrazol-1-yl)methyl)benzamido)pentanoate, TFA salt] | 177

More lines, in order of falling EC50, values ahead:

EC50 [nM] | SMILES
48 | Cc1c(Cl)cccc1OCCCC(=O)N1CCSc2c(-c3cnn(Cc4cccc(C(=O)NCS(=O)(=O)O)c4)c3)cccc21 [Example 565, (3-((4-(4-(4-(3-Chloro-2-methylphenoxy)butanoyl)-3,4-dihydro-2H-benzo[b][1,4]thiazin-8-yl)-1H-pyrazol-1-yl)methyl)benzamido) methanesulfonic acid]
46 | Cc1c(Cl)cccc1OCCCC(=O)N1CCSc2c(-c3cnn(Cc4cccc(C(=O)N[C@@H](CC(N)=O)C(=O)O)c4)c3)cccc21 [Example 614, (S)-4-Amino-2-(3-((4-(4-(4-(3-chloro-2-methylphenoxy)butanoyl)-3,4-dihydro-2H-benzo[b][1,4]thiazin-8-yl)-1H-pyrazol-1-yl)methyl)benzamido)-4-oxobutanoic acid]
45 | Cc1cccc(OCCCC(=O)N2CCSc3c(-c4cnn(Cc5c(F)cc(C(=O)NCS(=O)(=O)O)cc5Cl)c4)cccc32)c1C [Example 578, (3-Chloro-4-((4-(4-(4-(2,3-dimethylphenoxy)butanoyl)-3,4-dihydro-2H-benzo[b][1,4]thiazin-8-yl)-1H-pyrazol-1-yl)methyl)-5-fluorobenzamido) methanesulfonic acid]
43 | Cc1c(Cl)cccc1OCCCC(=O)N1CCSc2c(-c3cnn(Cc4c(F)cc(C(=O)NCCC[C@H](N)C(=O)O)cc4Cl)c3)cccc21 [Example 583, (S)-2-Amino-5-(3-chloro-4-((4-(4-(4-(3-chloro-2-methylphenoxy)butanoyl)-3,4-dihydro-2H-benzo[b][1,4]thiazin-8-yl)-1H-pyrazol-1-yl)methyl)-5-fluorobenzamido) pentanoic acid]
42 | Cc1c(Cl)cccc1OCCCC(=O)N1CCSc2c(-c3cnn(Cc4cccc(C(=O)NCC(C)(C)O)c4)c3)cccc21 [Example 593, 3-((4-(4-(4-(3-Chloro-2-methylphenoxy)butanoyl)-3,4-dihydro-2H-benzo[b][1,4]thiazin-8-yl)-1H-pyrazol-1-yl)methyl)-N-(2-hydroxy-2-methylpropyl)benzamide]
42 | Cc1cccc(OCCCC(=O)N2CCSc3c(-c4cnn(Cc5cccc(C(=O)NCCO)c5)c4)cccc32)c1C [Example 600, 3-((4-(4-(4-(2,3-Dimethylphenoxy)butanoyl)-3,4-dihydro-2H-benzo[b][1,4]thiazin-8-yl)-1H-pyrazol-1-yl)methyl)-N-(2-hydroxyethyl) benzamide]
38 | Cc1c(Cl)cccc1OCCCC(=O)N1CCSc2c(-c3cnn(Cc4c(F)cc(C(=O)NCC(=O)O)cc4Cl)c3)cccc21 [Example 581, 2-(3-Chloro-4-((4-(4-(4-(3-chloro-2-methylphenoxy)butanoyl)-3,4-dihydro-2H-benzo[b][1,4]thaizin-8-yl)-1H-pyrazol-1-yl)methyl)-5-fluorobenzamido)acetic acid]
35 | Cc1c(Cl)cccc1OCCCC(=O)N1CCSc2c(-c3cnn(Cc4cccc(C(=O)NCC(=O)O)c4)c3)cccc21 [Example 566, 2-(3-((4-(4-(4-(3-Chloro-2-methylphenoxy)butanoyl)-3,4-dihydro-2H-benzo[b][1,4]thiazin-8-yl)-1H-pyrazol-1-yl)methyl)benzamido)acetic acid]
31 | Cc1c(Cl)cccc1OCCCC(=O)N1CCSc2c(-c3cnn(Cc4c(F)cc(C(=O)NCCC(=O)O)cc4Cl)c3)cccc21 [Example 577, 3-(3-Chloro-4-((4-(4-(4-(3-chloro-2-methylphenoxy)butanoyl)-3,4-dihydro-2H-benzo[b][1,4]thiazin-8-yl)-1H-pyrazol-1-yl)methyl)-5-fluorobenzamido)propanoic acid]
30 | Cc1c(Cl)cccc1OCCCC(=O)N1CCSc2c(-c3cnn(Cc4cccc(C(=O)NCCO)c4)c3)cccc21 [Example 592, 3-((4-(4-(4-(3-Chloro-2-methylphenoxy)butanoyl)-3,4-dihydro-2H-benzo[b][1,4]thiazin-8-yl)-1H-pyrazol-1-yl)methyl)-N-(2-hydroxyethyl) benzamide]
23 | Cc1c(Cl)cccc1OCCCC(=O)N1CCSc2c(-c3cnn(Cc4c(F)cc(C(=O)NCCS(=O)(=O)O)cc4Cl)c3)cccc21 [Example 574, 2-(3-Chloro-4-((4-(4-(4-(3-chloro-2-methylphenoxy)butanoyl)-3,4-dihydro-2H-benzo[b][1,4]thiazin-8-yl)-1H-pyrazol-1-yl)methyl)-5-fluorobenzamido) ethanesulfonic acid]
